Assay [1] addresses Full length G2019 human LRRK2 (Homo sapiens (Human), UniProt Q5S007). The assay can be described thus: Full length G2019 human LRRK2 inhibition mass spectrometry assay. The conditions noted are these: Full length Flag-LRRK2, 25 uM LRRKtide, 2 mM ATP; for IC50: read-out: Full length G2019 human LRRK2 Inhibition mass spectrometry assay (pIC50) (converted). It is filed as biochemical. The method, then:
Mass Spectrometer Settings • LRRKtide Detection settings: Q1 mass 644.8 Da, Q3 mass 638.8, declustering potential 76 volts, collision energy 37 volts, CXP 34 volts • Phospho-LRRKtide Detection settings: Q1 mass 671.4 Da, Q3 mass 638.8, Declustering potential 76 volts, Collision energy 37 volts, CXP 34 volts. • A C4 cartridge was used and running buffers were: A (aqueous) 0.1% formic acid in water B (organic) 0.1% formic acid, 80% acetonitrile, 20% water • 5. Data was analysed using ActivityBase software (IDBS). A percent conversion from LRRKtide to Phospho-LRRKtide was calculated using the following formula: % conversion=(Phospho-LRRKtide product peak area/(Phospho-LRRKtide product peak area+LRRKtide substrate peak area))*100 2) Full Length G2019 Human LRRK2 Inhibition Mass Spectrometry Assay Insect Cell Cultures
Sf9 insect cells (Invitrogen Life Technologies, Carlsbad, Calif.) were maintained at 27° C. in SF 900 II SFM in 500-ml stationary flasks. The cells were maintained in exponential growth phase and subcultured twice per week. For larger volumes, cells were grown in 2-liter shaker flasks (Erlenmeyer, Corning) while being agitated with 120 rpm at 27° C. incubator shaker.
Human G2019 LRRK2 Plasmids Preparation
Primers Used for PCR Cloning:
• pHTBV-F: SEQ ID No: 1 • LRRK2 wt-F1: SEQ ID No: 2 • LRRK2 wt-R1: SEQ ID No: 3 • LRRK2 wt-F2: SEQ ID No: 4 • LRRK2 wt-R2: SEQ ID No: 5 • LRRK2 wt-F3: SEQ ID No: 6 • pHTBV-R: SEQ ID No: 7
The primers described above were used to amplify full length human LRRK2 (amino acids from 1-2527) with N terminal Flag tag from BioCat 116313 using high fidelity PCR polymerase KOD-Plus according to the manufacturer's instructions (KOD-211, TOYOBO). The PCR product was digested with BamHI and KpnI and ligated into BamHI and KpnI digested pHTBV1mcs3 (BioCat 127555). The sequence of the target fragment was confirmed by DNA sequencing. The construct BioCat141351 was generated by Novoprotein.
The G2019 full length Flag-LRRK2 coding sequence is SEQ ID No: 8.
The translated protein sequence for human G2019 full length LRRK2 flag tagged protein is SEQ ID No: 9.
Generation of the BacMam Virus
To generate the recombinant BacMam virus, SF9 cells were seeded in 6-well tissue culture dishes at 9×10^5 cells/well and allowed to attach for 20 min. Transfection procedure was followed using AESOP AP5911v2. Briefly, DH10Bac competent cells (10361-012, Invitrogen) were transformed by the genotypically normal human LRRK2 BacMam plasmid to generate the recombinant baculovirus DNA. The Sf9 insect cells were co-transfected with the mixture of recombinant baculovirus DNA and cellfectin (10362-100, Invitrogen). After 4 h of incubation at 27° C., the transfection media was replaced with Sf-900 III SFM medium containing 5% HI FBS (Ser. No. 10/100,147, Invitrogen). The cells were further incubated for 4 days. The infected cell culture medium containing the baculovirus (P0 virus stock) was collected and amplified by further infecting the Sf9 cells at multiplicity of infection (MOI) (pfu/cell) of 0.1.
Quantification of BacMam Viral Titre by BacPAKRapid Titer
The viral titre, measured as plaque forming unit (pfu)/ml was determined using BacPAK Papid Titer Kit (631406, Clontech) according to the manufacturer's protocol. The Sf9 cells seeded in 96-well plate with 3×10^5 cells per well were incubated with serial dilution of the viral stocks for 1 h at 27° C., 50 μl methyl cellulose overlay was added to each well followed by 43-47 h incubation. The cells were then fixed in 4% paraformaldehyde (PFA). After blocking the cells with diluted normal goat serum, Mouse anti-gp64 antibody was added to the cells. After 30 min incubation, the cells were washed with phosphate buffered saline containing 0.1% Triton-X100 (PBST) and incubated for another 30 min with goat anti-mouse antibody/HRP conjugate. This was followed by blue peroxidase substrate which detects the single infected cells and foci of infected cells by their dark blue color. […]

For assay [2], the target named is LRRK2 Ser935 phosphorylation in SH-SY5Y cells over-expressing recombinant full length LRRK2 (Homo sapiens (Human), UniProt Q5S007). The assay can be described thus: Recombinant cellular LRRK2 AlphaScreen assay. It is filed as cell-based. The note with it: 60 minutes, read-out: Recombinant cellular LRRK2 alphaScreen assay (pIC50) (converted). From the text:
To determine the activity of compounds against LRRK2 kinase activity in cells, the observed LRRK2 kinase-dependent modulation of LRRK2 Ser 935 phosphorylation (Dzamko et al., 2010, Biochem. J. 430: 405-413) was utilized to develop a quantitative 384 well plate-based immunoassay of LRRK2 Ser935 phosphorylation in the human neuroblastoma cell line SH-SY5Y, engineered to over-express recombinant full length LRRK2 protein.
A BacMam virus expressing full length recombinant LRRK2 was purchased from Invitrogen and amplified by inoculation of SF-9 cells at MOI 0.3 for 4-5 days in Sf-900 III SFM medium supplemented with 3% fetal bovine serum. Infected cell cultures were then centrifuged at 2000 g for 20 minutes, viral supernatant titer determined by anti-gp64 plaque assay and stored at 4° C.
Affinity-purified anti-phospho LRRK2 Ser935 sheep polyclonal antibody (Dzamko et al., 2010, Biochem. J. 430: 405-413) was biotinylated by standard methods (PerkinElmer). Anti-LRRK2 rabbit polyclonal antibody was purchased from Novus Biologicals. AlphaScreen Protein A IgG Kit (including acceptor and donor beads) was purchased from Perkin Elmer.
SH-SY5Y cells were grown in DMEM/F12 medium with 10% dialysed fetal bovine serum and harvested by treatment with 0.5% trypsin-EDTA for 5 minutes at 37° C. followed by centrifugation at 1000 rpm for 4 minutes. The cell pellet was resuspended in Opti-MEM reduced serum media (Invitrogen) at 200,000 cells/ml and mixed with the BacMam LRRK2 virus at M01=50. 50 μl cell solutions were then dispensed to each well of a 384-well plate and incubated at 37° C., 5% CO2 for 24 hours.
Serial dilutions of test compounds were prepared in Opti-MEM reduced serum media (Invitrogen) and 5.6 ul transferred from compound plate to cell assay plate to achieve a top final assay concentration of 10 uM. DMSO was used in certain wells as controls. Cells were incubated at 37° C., 5% CO2 for 60 minutes. The medium was then removed and cells lysed by addition of 20 ul cell lysis buffer (Cell Signaling Technology) and incubation at 4° C. for 20 minutes. 10 ul of antibody/acceptor bead mix [( 1/1000 biotinylated-pS935 LRRK2 antibody, 1/1000 total-LRRK2 antibody, 1/100 Acceptor beads in AlphaScreen detection buffer (25 mM Hepes (pH 7.4), 0.5% Triton X-100, 1 mg/ml Dextran 500 and 0.1% BSA)] was then added to each well and plates incubated for 2 hours at ambient temperature in the dark. 10 μl of donor beads solution (1/33.3 donor beads in AlphaScreen detection buffer) was then added to each well. Following incubation for a further 2 hours at ambient temperature in the dark, plates were read on an EnVision™ plate reader at emission 520-620 nm with excitation 680 nm. Dose response curve data was based on sigmoidal dose-response model.

The target in assay [3] is Truncated G2019 human LRRK2 (1326-2527) (Homo sapiens (Human), UniProt Q5S007). The assay can be described thus: Truncated G2019 human LRRK2 (1326-2527) inhibition mass spectrometry assay. It is filed as biochemical. The conditions noted are these: 6HIS-Tev-LRRK2 (1326-2527), 25 uM LRRKtide, 20 uM ATP; read-out: Truncated G2019 human LRRK2 inhibition mass spectrometry assay (pIC50) (converted). From the text: 1) Truncated G2019 Human LRRK2 (1326-2527) Inhibition Mass Spectrometry Assay
A LRRK2 cDNA encoding residues 1326-2527 was received from Dundee University (described in M. Jaleel et al., 2007, Biochem J, 405: 407-417). This gene fragment was subcloned into pFB-HTb (Invitrogen) using BamHI and NotI restriction sites. The LRRK2 plasmid was recombined into the baculovirus genome according to the BAC-to-BAC protocol described by Invitrogen. Transfection into Spodoptera frugiperda (Sf9) insect cells was performed using Cellfectin (Invitrogen), according to the manufacturer's protocol to generate P1 and P2 baculovirus stocks.
Sf9 cells were grown in HyClone SFX (Thermo Scientific) growth media at 27° C., 80 rpm in shake flask until of a sufficient volume to inoculate a bioreactor. The cells were grown in a 20 litre working volume Wave bioreactor (GE Healthcare) at 27° C., 50% dissolved oxygen and an agitation rate 22 rocks per minute, 10 degree rock angle, 200 ml/min air with a cell concentration of approximately 6xe6 cells/ml. The cells were infected with P2 Baculovirus at a multiplicity of infection (MOI) of 3. The cultivation was continued for a 48 hour expression phase. The infected cells were removed from the growth media by centrifugation at 2500 g using a Sorvall RC 3C Plus centrifuge at 2500 g for 20 minutes. The cell pellet was immediately frozen and subsequently supplied for purification.
A 260 g pellet was allowed to thaw in a water bath at 27° C. with 800 ml lysis buffer/buffer A (50 mm Tris-HCl pH 8.5, 300 mM NaCl, 1 mm DTT, 10% glycerol, 1 ml/L Calbiochem complete protease inhibitor cocktail and benzonase (50 ul/800 ml)) before being dounce homogenised on ice using 20 strokes per 100 ml. The suspension was packed in ice and sonicated at 50% amplitude for 3 min 10 sec on/off using a ¾″ probe. The suspension was then centrifuged at 100,000 g for 90 min, at 4° C.
The lysate (700 ml) was decanted from the insoluble pellet and contacted for 3h at 4° C. with 10 ml His bind Ni NTA resin by end over end mixing. The resin was recovered by centrifugation, 3000 g, 5 min at 4° C., and packed in an XK16 column. The column was then washed with 10 column volumes buffer A, 10 column volumes buffer B (buffer A+1M NaCl) and 10 column volumes buffer C (buffer A+20 mM imidazole). The column was then eluted with 15 column volumes buffer D (buffer A+300 mM imidazole) collecting 2 ml fractions. All washes and elution were conducted at 4 ml/min.
Fractions identified by SDS-PAGE as containing protein of interest were pooled and loaded directly onto a 320 ml SEC Superdex 200 pg column that was pre-equilibrated with buffer E (50 mM Tris-HCl pH 8.5, 300 mM NaCl, 10% glycerol, 1 mM DTT). The column was loaded and eluted with 1.2 column volumes buffer E at 2 ml/min collecting 2 ml fractions. Fractions identified by SDS-PAGE as containing protein of interest were tested for activity.
Production of LRRKtide for LRRK2 Inhibition Mass Spectrometry Assay
The ‘LRRKtide’ peptide (SEQ ID NO. 10) was synthesized as follows. The protected peptide was assembled on a solid-phase synthesiser using preloaded Wang resin and utilising standard Fmoc synthesis protocols. The crude peptide was obtained after cleavage from the resin with a mixture of trifluoroacetic acid (TFA), triisopropylsilane and water (95:2.5:2.5) for 3 hours at room temperature and was then purified using a C18 reverse-phase column utilising a 0.1% TFA-buffered water/acetonitrile gradient. The resulting fractions were analysed and fractions which were >95% pure by analytical HPLC and giving the correct molecular weight (mw) (by MALDiTOF mass spectroscopy) were pooled and freeze dried. The final material was analysed by HPLC and MALDiTOF mass spectroscopy.
Truncated G2019 Human LRRK2 (1326-2527) Inhibition Mass Spectrometry Assay […]

Data on five compounds can be found in US10975081B2, “Substituted fused pyrazole compounds and their use as LRRK2 inhibitors” (GlaxoSmithKline Intellectual Property Development Limited, priority 2015, dated 2021).

Molecules are shown by their SMILES. Where only a bound is given, the exact number is not on record here.

Sequence of LRRK2 Ser935 phosphorylation in SH-SY5Y cells over-expressing recombinant full length LRRK2 (Q5S007 whole entry): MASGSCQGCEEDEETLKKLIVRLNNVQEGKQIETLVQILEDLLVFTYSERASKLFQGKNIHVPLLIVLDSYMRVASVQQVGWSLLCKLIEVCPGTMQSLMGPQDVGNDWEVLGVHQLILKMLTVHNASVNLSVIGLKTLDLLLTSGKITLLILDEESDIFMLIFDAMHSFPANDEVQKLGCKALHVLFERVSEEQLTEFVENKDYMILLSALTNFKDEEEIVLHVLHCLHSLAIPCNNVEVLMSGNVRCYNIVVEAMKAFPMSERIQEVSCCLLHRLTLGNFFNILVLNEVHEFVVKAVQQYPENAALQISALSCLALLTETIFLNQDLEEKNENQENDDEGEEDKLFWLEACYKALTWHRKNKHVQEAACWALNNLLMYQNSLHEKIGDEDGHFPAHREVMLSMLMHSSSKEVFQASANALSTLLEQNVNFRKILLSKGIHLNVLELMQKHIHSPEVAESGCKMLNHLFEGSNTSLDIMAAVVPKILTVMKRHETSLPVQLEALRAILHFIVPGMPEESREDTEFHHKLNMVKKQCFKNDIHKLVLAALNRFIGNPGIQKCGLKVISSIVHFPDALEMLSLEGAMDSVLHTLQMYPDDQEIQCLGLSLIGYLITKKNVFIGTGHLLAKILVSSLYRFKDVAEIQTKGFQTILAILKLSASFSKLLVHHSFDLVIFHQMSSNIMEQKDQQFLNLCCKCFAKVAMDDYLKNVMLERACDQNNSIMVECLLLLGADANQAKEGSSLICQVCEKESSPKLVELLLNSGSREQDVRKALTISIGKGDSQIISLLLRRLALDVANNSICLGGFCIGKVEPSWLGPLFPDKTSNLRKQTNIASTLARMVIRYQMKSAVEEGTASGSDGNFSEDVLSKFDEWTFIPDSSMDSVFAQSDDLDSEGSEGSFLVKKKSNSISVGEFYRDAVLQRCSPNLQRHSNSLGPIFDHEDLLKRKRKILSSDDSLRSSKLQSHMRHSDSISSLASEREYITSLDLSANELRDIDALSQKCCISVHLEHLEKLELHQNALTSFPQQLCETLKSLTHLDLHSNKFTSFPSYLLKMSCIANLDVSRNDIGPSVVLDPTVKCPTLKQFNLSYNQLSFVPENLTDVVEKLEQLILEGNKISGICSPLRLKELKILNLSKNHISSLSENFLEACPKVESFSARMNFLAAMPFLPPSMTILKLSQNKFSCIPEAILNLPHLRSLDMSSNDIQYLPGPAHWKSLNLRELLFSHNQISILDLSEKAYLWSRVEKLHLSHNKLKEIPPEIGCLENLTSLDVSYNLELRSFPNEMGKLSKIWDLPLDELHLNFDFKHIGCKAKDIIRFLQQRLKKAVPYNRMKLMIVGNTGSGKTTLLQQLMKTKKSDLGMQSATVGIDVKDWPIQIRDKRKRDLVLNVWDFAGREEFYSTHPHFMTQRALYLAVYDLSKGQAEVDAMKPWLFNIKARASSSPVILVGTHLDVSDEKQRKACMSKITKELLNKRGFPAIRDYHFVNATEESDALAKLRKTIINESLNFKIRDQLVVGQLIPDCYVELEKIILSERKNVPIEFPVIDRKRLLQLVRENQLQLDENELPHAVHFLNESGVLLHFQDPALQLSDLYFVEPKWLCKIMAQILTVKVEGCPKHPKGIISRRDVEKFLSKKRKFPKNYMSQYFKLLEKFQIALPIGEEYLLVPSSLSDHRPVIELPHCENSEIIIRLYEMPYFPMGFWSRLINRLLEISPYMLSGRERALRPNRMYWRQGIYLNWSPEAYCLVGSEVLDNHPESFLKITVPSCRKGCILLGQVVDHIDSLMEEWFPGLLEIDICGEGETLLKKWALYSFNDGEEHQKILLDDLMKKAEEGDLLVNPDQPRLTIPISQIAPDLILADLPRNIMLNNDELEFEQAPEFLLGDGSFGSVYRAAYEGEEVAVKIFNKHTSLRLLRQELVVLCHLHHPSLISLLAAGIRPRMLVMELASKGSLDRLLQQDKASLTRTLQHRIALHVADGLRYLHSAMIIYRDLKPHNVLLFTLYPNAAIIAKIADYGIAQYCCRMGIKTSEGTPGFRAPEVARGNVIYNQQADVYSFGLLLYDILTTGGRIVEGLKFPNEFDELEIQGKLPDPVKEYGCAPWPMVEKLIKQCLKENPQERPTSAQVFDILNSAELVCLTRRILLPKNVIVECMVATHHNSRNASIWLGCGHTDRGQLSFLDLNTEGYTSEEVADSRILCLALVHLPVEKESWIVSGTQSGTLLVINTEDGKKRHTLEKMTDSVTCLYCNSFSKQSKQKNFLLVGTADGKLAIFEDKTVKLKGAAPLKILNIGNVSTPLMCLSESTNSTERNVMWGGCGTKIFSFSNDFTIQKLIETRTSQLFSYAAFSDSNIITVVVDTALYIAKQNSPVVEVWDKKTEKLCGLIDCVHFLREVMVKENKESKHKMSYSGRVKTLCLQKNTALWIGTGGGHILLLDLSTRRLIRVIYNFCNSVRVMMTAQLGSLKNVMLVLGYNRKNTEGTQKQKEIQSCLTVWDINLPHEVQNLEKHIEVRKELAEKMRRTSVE
Sequence of Full length G2019 human LRRK2 (Q5S007 other isoform, or with tags, fused parts or gaps): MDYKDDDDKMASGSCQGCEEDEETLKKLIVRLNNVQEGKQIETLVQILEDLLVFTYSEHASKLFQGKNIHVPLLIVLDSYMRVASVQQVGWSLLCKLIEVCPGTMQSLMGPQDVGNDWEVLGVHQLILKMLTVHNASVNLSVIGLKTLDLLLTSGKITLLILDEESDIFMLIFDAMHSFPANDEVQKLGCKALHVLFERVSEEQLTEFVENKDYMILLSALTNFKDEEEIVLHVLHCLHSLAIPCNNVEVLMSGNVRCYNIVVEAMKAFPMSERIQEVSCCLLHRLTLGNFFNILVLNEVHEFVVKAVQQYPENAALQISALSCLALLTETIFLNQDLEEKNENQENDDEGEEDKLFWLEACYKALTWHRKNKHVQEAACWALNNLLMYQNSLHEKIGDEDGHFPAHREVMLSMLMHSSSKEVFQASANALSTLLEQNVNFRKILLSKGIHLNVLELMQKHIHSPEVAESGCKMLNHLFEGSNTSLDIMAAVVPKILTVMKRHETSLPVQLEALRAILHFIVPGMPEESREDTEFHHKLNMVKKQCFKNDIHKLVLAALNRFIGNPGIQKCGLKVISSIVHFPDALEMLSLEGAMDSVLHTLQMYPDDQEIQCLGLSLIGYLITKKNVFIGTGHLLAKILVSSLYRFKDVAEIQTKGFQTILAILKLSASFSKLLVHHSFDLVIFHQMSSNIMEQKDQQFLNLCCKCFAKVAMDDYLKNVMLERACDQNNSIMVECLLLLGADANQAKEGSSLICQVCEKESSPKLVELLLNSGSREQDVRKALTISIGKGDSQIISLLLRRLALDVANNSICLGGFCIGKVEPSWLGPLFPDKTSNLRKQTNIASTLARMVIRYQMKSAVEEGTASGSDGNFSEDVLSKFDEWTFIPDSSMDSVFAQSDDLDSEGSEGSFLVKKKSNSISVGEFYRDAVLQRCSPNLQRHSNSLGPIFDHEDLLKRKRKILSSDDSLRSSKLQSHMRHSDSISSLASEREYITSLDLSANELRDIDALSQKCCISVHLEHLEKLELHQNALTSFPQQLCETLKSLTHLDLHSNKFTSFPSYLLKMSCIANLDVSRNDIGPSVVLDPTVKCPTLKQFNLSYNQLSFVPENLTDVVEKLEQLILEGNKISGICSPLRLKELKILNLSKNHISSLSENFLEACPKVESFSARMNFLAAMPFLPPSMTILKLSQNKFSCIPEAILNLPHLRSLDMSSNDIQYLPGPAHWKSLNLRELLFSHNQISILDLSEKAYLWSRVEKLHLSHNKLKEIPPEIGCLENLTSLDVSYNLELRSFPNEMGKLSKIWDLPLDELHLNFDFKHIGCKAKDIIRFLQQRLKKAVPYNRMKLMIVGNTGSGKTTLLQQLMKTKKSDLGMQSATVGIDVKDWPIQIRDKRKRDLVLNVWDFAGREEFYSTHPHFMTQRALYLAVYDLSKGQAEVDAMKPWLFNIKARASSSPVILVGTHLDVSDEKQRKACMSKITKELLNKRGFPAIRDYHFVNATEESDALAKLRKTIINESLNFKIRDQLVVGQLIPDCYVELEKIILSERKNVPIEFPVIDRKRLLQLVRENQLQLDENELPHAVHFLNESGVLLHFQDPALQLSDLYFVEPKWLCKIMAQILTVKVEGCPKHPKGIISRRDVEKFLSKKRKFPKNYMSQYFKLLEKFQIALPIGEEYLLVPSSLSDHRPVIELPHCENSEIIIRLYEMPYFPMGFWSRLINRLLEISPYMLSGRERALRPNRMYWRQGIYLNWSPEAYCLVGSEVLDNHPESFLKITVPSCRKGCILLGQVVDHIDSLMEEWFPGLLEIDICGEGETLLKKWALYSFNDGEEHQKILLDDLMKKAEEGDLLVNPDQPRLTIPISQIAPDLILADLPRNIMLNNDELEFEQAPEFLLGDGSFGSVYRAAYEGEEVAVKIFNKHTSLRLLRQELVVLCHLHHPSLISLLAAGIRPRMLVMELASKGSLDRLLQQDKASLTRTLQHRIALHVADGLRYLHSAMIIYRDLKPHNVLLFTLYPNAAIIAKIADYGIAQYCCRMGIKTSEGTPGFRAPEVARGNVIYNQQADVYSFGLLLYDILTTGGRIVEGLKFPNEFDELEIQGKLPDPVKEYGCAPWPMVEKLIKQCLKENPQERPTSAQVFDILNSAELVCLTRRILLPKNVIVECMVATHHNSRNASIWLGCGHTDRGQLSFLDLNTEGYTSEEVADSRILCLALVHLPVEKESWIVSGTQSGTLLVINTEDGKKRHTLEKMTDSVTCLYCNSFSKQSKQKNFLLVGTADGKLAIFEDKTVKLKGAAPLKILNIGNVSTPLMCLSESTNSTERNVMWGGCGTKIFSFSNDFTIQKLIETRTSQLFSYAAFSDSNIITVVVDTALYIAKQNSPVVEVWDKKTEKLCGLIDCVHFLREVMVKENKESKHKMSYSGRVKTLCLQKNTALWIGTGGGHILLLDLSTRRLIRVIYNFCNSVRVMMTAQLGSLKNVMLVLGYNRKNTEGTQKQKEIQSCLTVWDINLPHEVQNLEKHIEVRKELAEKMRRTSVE

In the case of `Cc1nc(-n2ncc3cc(C)c(C4CCN(C5COC5)CC4F)cc32)cc([C@H]2C[C@@H](O)C2)n1` (single isomer, unassigned) [Example E45, (cis)-(1s,3s)-3-(6-(6-(3-Fluoro-1-(oxetan-3-yl)piperidin-4-yl)-5-methyl-1H-indazol-1-yl)-2-methylpyrimidin-4-yl)cyclobutanol], in assay [1], the IC50 is no more than 10 µM.
Consider `Cc1nc(N2CCO[C@@H](CO)C2)cc(-n2ncc3cc(C)c(C4CCNCC4)cc32)n1` [Example E188, (R)-(4-(2-Methyl-6-(5-methyl-6-(piperidin-4-yl)-1H-indazol-1-yl)pyrimidin-4-yl)morpholin-2-yl)methanol], for which the “Full length G2019 human LRRK2 Inhibition mass spectrometry assay (pIC50)” value in assay [1] came to 7.6. For the same compound, in assay [2], the IC50 is 0.0794 µM.
`Cc1nc(N2CC(O)C2)cc(-n2ncc3cc(C)c(C4CCN(C5COC5)CC4F)cc32)n1` (single isomer, unassigned) [Example E42, (cis)-1-(6-(6-(3-Fluoro-1-(oxetan-3-yl)piperidin-4-yl)-5-methyl-1H-indazol-1-yl)-2-methylpyrimidin-4-yl)azetidin-3-ol]: the IC50 in assay [1] is no more than 10 µM; in assay [2], no more than 0.1 µM.
The matching figures for `COc1nc(N2CC(O)C2)cc(-n2ncc3cc(C)c(C4CN(C)CCO4)cc32)n1` (single isomer, unassigned) [Example E230, 1-(2-Methoxy-6-(5-methyl-6-(4-methylmorpholin-2-yl)-1H-indazol-1-yl)pyrimidin-4-yl)azetidin-3-ol]: 0.251 µM and 0.631 µM.
Consider `COc1nc(N2CCOCC2)cc(-n2ncc3cc(C)c(C4CCN(C5COC5)CC4(F)F)cc32)n1` (single isomer, unassigned) [Example E22, 4-(6-(6-(3,3-Difluoro-1-(oxetan-3-yl)piperidin-4-yl)-5-methyl-1H-indazol-1-yl)-2-methoxypyrimidin-4-yl)morpholine], for which the results for the IC50 in assay [2] and in assay [3] were 0.0126 µM and 0.00794 µM, respectively.
